US10077261B2, “Imidazolin-5-one derivative useful as FASN inhibitors for the treatment of cancer” (Janssen Pharmaceutica NV, priority 2012, dated 2018)

Biological target: T1, hFASN enzyme (full length) (Homo sapiens, UniProt P49327)
T1 construct: 10 μL hFASN enzyme (full length, 300 ng, purified in house); made in house
Experiment: Fatty Acid Synthase (FASN) inhibition scintillation proximity assay
Assay type: biochemical
Settings: for inhibition at 10 µM: read-out: Human FASN % inhibition @ 10 μM, 10 μM test compound; for IC50: read-out: Human FASN pIC50 (converted)
How it was run: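 Purified full-length hFASN (300 ng) converts ^3H-acetyl-CoA plus malonyl-CoA to ^3H-palmitate in 100 mM KH2PO4 pH 7.5, 1 mM DTT; compounds tested at 0.01–30 μM. Product captured on streptavidin imaging beads and read by LEADseeker at 610 nm after ≥24 h; 4-parameter logistic fit versus controls.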

T1 sequence (P49327 whole entry): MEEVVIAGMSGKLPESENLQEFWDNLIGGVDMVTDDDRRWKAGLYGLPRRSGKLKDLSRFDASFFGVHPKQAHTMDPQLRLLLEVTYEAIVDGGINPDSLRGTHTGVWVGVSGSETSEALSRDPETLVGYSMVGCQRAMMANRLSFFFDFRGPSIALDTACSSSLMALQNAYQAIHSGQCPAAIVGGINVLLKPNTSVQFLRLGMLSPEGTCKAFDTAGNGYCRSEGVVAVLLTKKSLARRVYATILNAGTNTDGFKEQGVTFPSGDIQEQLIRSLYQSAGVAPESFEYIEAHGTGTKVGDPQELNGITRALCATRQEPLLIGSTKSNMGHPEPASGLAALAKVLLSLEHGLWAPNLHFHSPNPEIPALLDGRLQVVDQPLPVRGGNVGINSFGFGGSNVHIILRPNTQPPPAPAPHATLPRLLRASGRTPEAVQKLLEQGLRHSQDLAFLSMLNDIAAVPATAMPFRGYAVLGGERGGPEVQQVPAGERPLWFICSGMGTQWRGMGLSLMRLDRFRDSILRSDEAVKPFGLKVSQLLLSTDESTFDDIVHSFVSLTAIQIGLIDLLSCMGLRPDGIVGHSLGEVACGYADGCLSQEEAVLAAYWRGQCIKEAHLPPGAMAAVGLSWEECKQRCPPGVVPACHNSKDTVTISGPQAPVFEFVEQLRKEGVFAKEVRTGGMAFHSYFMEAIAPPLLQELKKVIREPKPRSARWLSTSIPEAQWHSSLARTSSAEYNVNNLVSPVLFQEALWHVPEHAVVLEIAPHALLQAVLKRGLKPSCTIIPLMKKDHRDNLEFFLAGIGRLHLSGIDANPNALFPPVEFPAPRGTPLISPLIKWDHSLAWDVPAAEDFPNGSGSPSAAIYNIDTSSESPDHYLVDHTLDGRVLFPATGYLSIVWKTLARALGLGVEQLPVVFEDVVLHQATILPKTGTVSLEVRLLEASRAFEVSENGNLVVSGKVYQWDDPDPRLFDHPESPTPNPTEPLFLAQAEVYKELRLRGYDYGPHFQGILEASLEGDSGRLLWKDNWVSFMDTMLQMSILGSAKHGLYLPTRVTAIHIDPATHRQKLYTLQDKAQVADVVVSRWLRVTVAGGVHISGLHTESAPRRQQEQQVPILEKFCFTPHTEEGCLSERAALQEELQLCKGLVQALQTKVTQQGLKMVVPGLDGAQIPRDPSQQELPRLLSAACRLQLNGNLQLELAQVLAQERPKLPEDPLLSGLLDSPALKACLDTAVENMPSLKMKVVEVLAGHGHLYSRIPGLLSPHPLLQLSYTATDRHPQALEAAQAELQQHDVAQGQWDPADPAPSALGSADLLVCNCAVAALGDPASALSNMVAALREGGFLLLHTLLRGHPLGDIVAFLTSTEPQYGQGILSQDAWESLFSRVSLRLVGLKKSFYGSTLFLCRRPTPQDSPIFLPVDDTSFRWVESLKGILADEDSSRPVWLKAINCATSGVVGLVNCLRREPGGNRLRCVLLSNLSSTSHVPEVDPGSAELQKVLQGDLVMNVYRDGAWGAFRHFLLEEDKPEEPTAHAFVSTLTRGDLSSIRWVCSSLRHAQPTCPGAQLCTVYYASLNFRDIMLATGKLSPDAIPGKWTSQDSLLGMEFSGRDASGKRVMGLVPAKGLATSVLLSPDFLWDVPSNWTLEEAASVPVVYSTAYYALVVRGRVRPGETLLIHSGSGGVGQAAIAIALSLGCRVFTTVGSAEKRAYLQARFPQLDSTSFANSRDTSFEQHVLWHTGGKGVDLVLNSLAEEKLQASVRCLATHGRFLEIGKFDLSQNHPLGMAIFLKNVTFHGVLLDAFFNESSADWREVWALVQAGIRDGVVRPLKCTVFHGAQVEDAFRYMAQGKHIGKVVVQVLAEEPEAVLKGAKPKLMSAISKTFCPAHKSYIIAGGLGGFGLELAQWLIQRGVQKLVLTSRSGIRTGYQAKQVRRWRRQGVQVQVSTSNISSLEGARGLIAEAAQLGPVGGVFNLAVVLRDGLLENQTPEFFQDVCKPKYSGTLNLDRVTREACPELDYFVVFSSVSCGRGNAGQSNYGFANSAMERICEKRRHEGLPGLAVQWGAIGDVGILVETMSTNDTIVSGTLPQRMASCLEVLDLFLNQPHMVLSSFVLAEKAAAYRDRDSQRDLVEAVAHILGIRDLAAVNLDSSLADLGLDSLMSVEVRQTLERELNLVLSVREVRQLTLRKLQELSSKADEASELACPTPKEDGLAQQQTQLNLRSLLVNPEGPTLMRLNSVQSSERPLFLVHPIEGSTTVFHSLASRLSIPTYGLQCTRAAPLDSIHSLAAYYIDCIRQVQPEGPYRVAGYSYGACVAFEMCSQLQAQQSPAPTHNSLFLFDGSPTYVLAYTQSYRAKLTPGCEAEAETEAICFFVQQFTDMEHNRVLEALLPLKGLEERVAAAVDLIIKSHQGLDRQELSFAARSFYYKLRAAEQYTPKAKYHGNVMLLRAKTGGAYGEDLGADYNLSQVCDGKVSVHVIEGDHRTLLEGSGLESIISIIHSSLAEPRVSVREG

inhibition at 10 µM [%]	IC50 [µM]	Human FASN % inhibition @ 10 μM (10 μM test compound, 10 µM) [%]	Human FASN pIC50 (hFASN enzyme, full length, "~" means standard error of the pIC50 is larger than 0.5)	Structure (SMILES)
10				Cn1ncc2cc(-c3ccc(C4=NC5(CC5)C(=O)N4C[C@H]4CCCN(C(=O)C5CC5)C4)cc3)ccc21 [compound 819, (S)-6-((1-(cyclopropanecarbonyl)piperidin-3-yl)methyl)-5-(4-(1-methyl-1H-indazol-5-yl)phenyl)-4,6-diazaspiro[2.4]hept-4-en-7-one]
33	> 10			O=C(C1CC1)N1CCC[C@@H](CN2C(=O)C3(CC3)N=C2c2ccc(-c3ccc(-c4cccc(Cl)c4)cc3)cc2)C1 [compound 820, (R)-5-(3″-chloro-[1,1′:4′,1″-terphenyl]-4-yl)-6-((1-(cyclopropanecarbonyl)piperidin-3-yl)methyl)-4,6-diazaspiro[2.4]hept-4-en-7-one]
7	> 10			Cc1ccc(-c2ccc(-c3ccc(C4=NC5(CC5)C(=O)N4C[C@@H]4CCCN(C(=O)C5CC5)C4)cc3)cc2)cc1 [compound 821, (R)-6-((1-(cyclopropanecarbonyl)piperidin-3-yl)methyl)-5-(4″-methyl-[1,1′:4′,1″- terphenyl]-4-yl)-4,6-diazaspiro[2.4]hept-4-en-7-one]
25	> 10			Cc1cc(-c2cnc3c(c2)OCCN3C)ccc1C1=NC2(CCCC2)C(=O)N1C[C@@H]1CCN(C(=O)C2CC2)C1 [compound 822, (R)-3-((1-(cyclopropanecarbonyl)pyrrolidin-3-yl)methyl)-2-(2-methyl-4-(4-methyl-3,4-dihydro-2H-pyrido[3,2-b][1,4]oxazin-7-yl)phenyl)-1,3-diazaspiro[4.4]non-1-en-4-one]
31	> 10			Cn1cc(-c2ccc(-c3ccc(C4=NC5(CC5)C(=O)N4C[C@@H]4CCCN(C(=O)C5CC5)C4)cc3)cc2)cn1 [compound 823, (R)-6-((1-(cyclopropanecarbonyl)piperidin-3-yl)methyl)-5-(4′-(1-methyl-1H-pyrazol-4-yl)-[1,1′-biphenyl]-4-yl)-4,6-diazaspiro[2.4]hept-4-en-7-one]
4	> 10			O=C(C1CC1)N1CC[C@@H](CN2C(=O)C3(CCCC3)N=C2c2ccc(-c3ccnc(N4CCNCC4)c3)cc2)C1 [compound 828, (R)-3-((1-(cyclopropanecarbonyl)pyrrolidin-3-yl)methyl)-2-(4-(2-(piperazin-1-yl)pyridin-4-yl)phenyl)-1,3-diazaspiro[4.4]non-1-en-4-one]
7	> 10			CN1CCN(c2cc(-c3ccc(C4=NC5(CCCC5)C(=O)N4C[C@@H]4CCN(C(=O)C5CC5)C4)cc3)ccn2)CC1 [compound 829, (R)-3-((1-(cyclopropanecarbonyl)pyrrolidin-3-yl)methyl)-2-(4-(2-(4-methylpiperazin-1-yl)pyridin-4-yl)phenyl)-1,3-diazaspiro[4.4]non-1-en-4-one]
52	> 10			Cc1cc(-c2cncc(Cl)c2)ccc1C1=NC2(CCCC2)C(=O)N1C[C@@H]1CCN(C(=O)C2CC2)C1 [compound 855, (R)-2-(4-(5-chloropyridin-3-yl)-2-methylphenyl)-3-((1-(cyclopropanecarbonyl)pyrrolidin-3-yl)methyl)-1,3-diazaspiro[4.4]non-1-rn-4-one]
		11	<5	O=C(C1CC1)N1CCC(CN2C(=O)C3(CC3)N=C2c2ccc(-c3ccc(C(F)(F)F)cc3)cc2)CC1 [compound 859, 6-((1-(cyclopropanecarbonyl)piperidin-4-yl)methyl)-5-(4′-(trifluoromethyl)-[1,1′-biphenyl]-4-yl)-4,6-diazaspiro[2.4]hept-4-en-7-one]
44	> 10			Nc1cncc(-c2ccc(C3=NC4(CC4)C(=O)N3C[C@@H]3CCN(C(=O)C4CC4)C3)cc2)c1 [compound 867, (R)-5-(4-(5-aminopyridi9n-3-yl)phenyl)-6-((1-(cyclopropanecarbonyl)pyrrolidin-3-yl)methyl)-4,6-diazaspiro[2.4]hept-4-en-7-one]
	0.0468			Cc1cc2cc(-c3ccc(C4=NC5(CC5)C(=O)N4CC4CN(C(=O)C5CC5)C4)c(F)c3)ccc2[nH]1 [compound 869, 6-((1-(cyclopropanecarbonyl)azetidin-3-yl)methyl)-5-(2-fluoro-4-(2-methyl-1H-indol-5-yl)phenyl)-4,6-diazaspiro[2.4]hept-4-en-7-one]
	0.0269			Cn1ccc2cc(-c3ccc(C4=NC5(CC5)C(=O)N4CC4CN(C(=O)C5CC5)C4)c(F)c3)ccc21 [compound 870, 6-((1-(cyclopropanecarbonyl)azetidin-3-yl)methyl)-5-(2-fluoro-4-(1-methy7l-1H-indol-5-yl)phenyl)-4,6-diazaspiro[2.4]hept-4-en-7-one]
79	1.91			CC(=O)c1ccc(-c2ccc(C3=NC4(CCCC4)C(=O)N3C[C@@H]3CCN(C(=O)C4CC4)C3)c(F)c2)cc1 [compound 886, (R)-2-(4′-acetyl-3-fluoro-[1,1′-biphenyl]-4-yl)-3-((1-(cyclopropanecarbonyl)pyrrolidin-3-yl)methyl)-1,3-diazaspiro[4.4]non-1-en-4-one]
73	4.07			O=C(C1CC1)N1CC(CN2C(=O)C3(CC3)N=C2c2ccc(-c3ccc(Br)cn3)cc2)C1 [compound 887, 5-(4-(5-bromopyridin-2-yl)phenyl)-6-((1-(cyclopropanecarbonyl)azetidin-3-yl)methyl)-4,6-diazaspiro[2.4]hept-4-en-7-one]
1	> 10			CS(=O)(=O)N1CC(CN2C(=O)C3(CCOCC3)N=C2c2ccc(-c3ccc4occc4c3)cc2)C1 [compound 888, 2-(4-(benzofuran-5-yl)phenyl)-3-((1-(methylsulfonyl)azetidin-3-yl)methyl)-8-oxa-1,3-diazaspiro[4.5]dec-1-en-4-one]
44	> 10			COC(=O)N1CC[C@@H](CN2C(=O)C3(CCOCC3)N=C2c2ccc(-c3ccc4occc4c3)cc2)C1 [compound 889, (S)-methyl 3-((2-(4-(benzofuran-5-yl)phenyl)-4-oxo-8-oxa-1,3-diazaspiro[4.5]dec-1-en-3-yl)methyl)pyrrolidin-1-carboxylate]
37	> 10			Cn1ncc2cc(-c3ccc(C4=NC5(CCOCC5)C(=O)N4C[C@@H]4CCN(C(=O)C(F)(F)F)C4)cc3)ccc21 [compound 890, (R)-2-(4-(1-methyl-1H-indazol-5-yl)phenyl)-3-((1-(2,2,2-trifluoroacetyl)pyrrolidin-3-yl)methyl)-8-oxa-1,3-diazaspiro[4.5]dec-1-en-4-one]
-29	> 10			Cn1ncc2cc(-c3ccc(C4=NC5(CCOC5)C(=O)N4C[C@@H]4CCN(C(=O)c5nccs5)C4)cc3)ccc21 (stereo partly drawn) [compound 892, 2-(4-(1-methyl-1H-indazol-5-yl)phenyl)-3-(((R)-1-(thiazole-2-carbonyl)pyrrolidin-3-yl)methyl)-7-oxa-1,3-diazxaspiro[4.4]non-1-en-4-one]
-12	> 10			Cn1cc(-c2ccc(-c3ccc(C4=NC5(CCOCC5)C(=O)N4CC4CN(C(=O)C(F)(F)F)C4)cc3)cc2)cn1 [compound 893, 2-(4′-(1-methyl-1H-pyrazol-4-yl)-[1,1′-biphenyl]-4-yl)-3-((1-(2,2,2-trifluoroacetyl)azetidin-3-yl)methyl)-8-oxa-1,3-diazaspiro[4.5]dec-1-en-4-one]
20	> 10			COC(=O)N1CC[C@@H](CN2C(=O)C3(CCOC3)N=C2c2ccc(-c3ccc(-c4cnn(C)c4)cc3)cc2)C1 (stereo partly drawn) [compound 894, (3S)-methyl 3-((2-(4′-(1-methyl-1H-pyrazol-4-yl)-[1,1′-biphenyl]-4-yl)-4-oxo-7-oxa-1,3-diazaspiro[4.4]non-1-en-3-yl)methyl)pyrrolidin-1-carboxylate]
6	> 10			O=C(N1CC(CN2C(=O)C3(CCOC3)N=C2c2ccc(-c3ccc4cccnc4c3)cc2)C1)C(F)(F)F (centres unmarked) [compound 895, 2-(4-(quinolin-7-yl)phenyl)-3-((1-(2,2,2-trifluoroacetyl)azetidin-3-yl)methyl)-7-oxa-1,3-diazaspiro[4.4]non-1-en-4-one]
2	> 10			Cn1cc(-c2ccc(-c3ccc(C4=NC5(CCOC5)C(=O)N4CC4CN(C(=O)c5nccs5)C4)cc3)cc2)cn1 (centres unmarked) [compound 901, 2-(4′-(1-methyl-1H-pyrazol-4-yl)-[1,1′-biphenyl]-4-yl)-3-((1-(thiazol-2-carbonyl)azetidin-3-yl)methyl)-7-oxa-1,3-diazaspiro[4.4]non-1-en-4-one]
6	> 10			Cn1ncc2cc(-c3ccc(C4=NC5(CCOCC5)C(=O)N4CC4CN(S(C)(=O)=O)C4)cc3)ccc21 [compound 902, 2-(4-(1-methyl-1H-indazol-5-yl)phenyl)-3-((1-(methylsulfonyl)azetidin-3-yl)methyl)-8-oxa-1,3-diazaspiro[4.5]dec-1-en-4-one]
15	> 10			COC(=O)N1CC(CN2C(=O)C3(CCOC3)N=C2c2ccc(-c3ccc4cccnc4c3)cc2)C1 (centres unmarked) [compound 903, methyl 3-((4-oxo-2-(4-(quinolin-7-yl)phenyl)-7-oxa-1,3-diazaspiro[4.4]non-1-en-3-yl)methyl)azetidine-1-carboxylate]
-24	> 10			COC(=O)N1CC(CN2C(=O)C3(CCOC3)N=C2c2ccc(-c3ccc4occc4c3)cc2)C1 (centres unmarked) [compound 904, methyl 3-((2-(4-(benzofuran-5-yl)phenyl)-4-oxo-7-oxa-1,3-diazaspiro[4.4]non-1-en-3-yl)methyl)azetidin-1-carboxylate]
